Test results published in paper PMC11053447, “Human ABC and SLC Transporters: The Culprit Responsible for Unspecific PSMA-617 Uptake?” (Pharmaceuticals, 2024).

Legend:
[1] = target: human MATE2-K (Homo sapiens, UniProt Q86VL8); assay: SLC transporter substrate assay, MDCKII-MATE2K-Fin vs control MDCKII-CAT-Fin cells
Description: The described cells were plated onto standard 24-well tissue culture plates at densities of 5 × 10^5 cells/well. […] Before starting the experiment, the cells were prepared by removing the medium and washing the cells twice with 300 µL of assay buffer. […] The cells were lysed by adding 300 µL of 0.1N NaOH, they were incubated for 10 min at 37 °C and 100 µL samples were taken from all the wells.
The amount of protein in each well was quantified using the BCA kit for protein determination (Sigma-Aldrich, St Louis, MO, USA). Positive controls were performed using a separate 96-well plate format according to Table S8 in SI4.
(§1) SI4. Results of transporter substrate assays (SLC)
Table S8: Parameters of positive controls, control cell lines and plating for SLC transporters assays.
KH: Krebs-Henseleit buffer, HBSS: Hank's balanced salt solution, MES: 2 -(N-morpholino) ethanesulfonic acid, cGMP:
Guanosine cyclic phosphate, E3S: Estrone -3-sulfate, Gly-Sar: Glycylsarcosine, MPP+: 1-methyl-4-phenylpyridinium.
Calculation of fold accumulation values for SLC transporter substrate assays The fold accumulation value was defined as the ratio of uptake of the test substance (TS) or probe substrate into transfected and control cells. If the fold accumulation is > 2 and can be inhibited by a known inhibitor of the transporter, the test substance can be considered as a substrate of the respective transporter.
(§2) Fold accumulation = UPTTRP
• UPTTRP: accumulated amount of test substance (TS) or probe substrate in transfected cells normalized by protein content […]
• UPTCTRL: accumulated amount of test substance (TS) or probe substrate in control cells normalized by protein content […]
4.2 Multidrug and toxin extrusion protein MATE2-K
(MDCKII-MATE2K-Fin) and control cells (MDCKII-CAT-Fin) applying 2- and 20-minute incubation periods, measured in SLC transporter substrate assay. […] Concentrations are nominal. […]
and control cells (MDCKII-CAT-Fin) applying 2- and 20-minute incubation periods, measured in SLC transporter […]
Compound Nominal In MATE2-K Fold

[2] = target: T1, human OAT2v1 (Homo sapiens, UniProt Q9Y694); assay: SLC transporter substrate assay, HEK293-OAT2v1-LV vs control HEK293-Mock-LV cells; type: in vitro ADME; conditions: 20 min
T1 construct: host or cells: HEK293-OAT2v1-LV
T1 sequence (Q9Y694 1-546 isoform Q9Y694-2): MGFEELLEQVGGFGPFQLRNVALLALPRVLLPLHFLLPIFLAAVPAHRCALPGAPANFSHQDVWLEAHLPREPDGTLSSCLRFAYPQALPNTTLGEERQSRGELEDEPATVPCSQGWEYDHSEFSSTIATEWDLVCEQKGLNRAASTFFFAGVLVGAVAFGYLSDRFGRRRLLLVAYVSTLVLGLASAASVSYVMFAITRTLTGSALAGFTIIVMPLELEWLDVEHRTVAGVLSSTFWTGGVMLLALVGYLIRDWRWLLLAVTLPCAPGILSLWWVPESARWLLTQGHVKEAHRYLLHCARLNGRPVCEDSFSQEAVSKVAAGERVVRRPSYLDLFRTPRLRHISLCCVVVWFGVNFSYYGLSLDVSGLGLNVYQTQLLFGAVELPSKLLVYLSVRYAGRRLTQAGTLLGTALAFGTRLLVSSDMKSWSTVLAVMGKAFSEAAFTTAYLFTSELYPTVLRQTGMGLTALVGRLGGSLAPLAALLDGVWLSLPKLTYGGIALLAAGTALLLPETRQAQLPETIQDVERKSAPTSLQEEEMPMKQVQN
Description: as §1
Human Incubation Positive control substrate/ Control Special Incubation Assay […]
(Cell line) at 37°C [min] [h]
OAT2v1 cGMP (1.5) / Mock-B- Poly-D-lysine
as §2
PSMA-617 in SLC transporters.
NA: not analyzed. Test substances were considered as substrates in case of fold accumulation values > 2 combined with inhibition values higher than 50%.
4.4 Organic anion transporter OAT2v1 […]
expressed as mean (n=3) ± SD. Concentrations are nominal.
Table S13: ([α,β-3H]Nal)Lu-PSMA-617-accumulation in OAT2v1 transporter expressing (HEK293-OAT2v1-LV) and […]
Conditions Accumulation (pmol/mg protein)
Compound Nominal In OAT2v1 Fold concentration Minutes transporter In control Active accumulation
[µM] expressing cells transport
Positive control (accumulation in cpm)

[3] = 0.03 µM nominal + Indomethacin 300 µM
[4] = 0.30 µM nominal + Indomethacin 300 µM

Sequence of human MATE2-K (Q86VL8 1-566 isoform Q86VL8-3): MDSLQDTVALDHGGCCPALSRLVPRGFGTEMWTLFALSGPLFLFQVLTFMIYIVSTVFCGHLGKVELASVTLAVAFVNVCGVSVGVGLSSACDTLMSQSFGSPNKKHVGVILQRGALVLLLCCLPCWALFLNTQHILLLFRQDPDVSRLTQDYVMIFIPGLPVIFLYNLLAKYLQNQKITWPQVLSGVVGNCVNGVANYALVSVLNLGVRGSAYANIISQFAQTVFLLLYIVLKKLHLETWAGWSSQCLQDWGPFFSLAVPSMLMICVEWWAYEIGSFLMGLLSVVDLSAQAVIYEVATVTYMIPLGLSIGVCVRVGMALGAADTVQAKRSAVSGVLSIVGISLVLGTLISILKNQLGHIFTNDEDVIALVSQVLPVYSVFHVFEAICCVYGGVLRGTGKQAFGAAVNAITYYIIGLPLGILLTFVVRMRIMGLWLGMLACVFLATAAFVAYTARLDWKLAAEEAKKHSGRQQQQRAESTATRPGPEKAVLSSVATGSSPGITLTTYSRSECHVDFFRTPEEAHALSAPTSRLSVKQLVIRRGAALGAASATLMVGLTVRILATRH

In the case of `[3H]C(c1ccc2ccccc2c1)C([3H])(NC(=O)C1CCC(CNC(=O)CN2CCN(CC(=O)[O-])CCN(CC(=O)[O-])CCN(CC(=O)[O-])CC2)CC1)C(=O)NCCCCC(NC(=O)NC(CCC(=O)O)C(=O)O)C(=O)O.[Lu+3]` (stereo not drawn) [([α,β-^3H]Nal)Lu-PSMA-617], the “Accumulation in MATE2-K transporter expressing cells” value ([1]; 0.03 µM nominal, 2 min) is reported as 0.06 ± 0.01 pmol/mg protein, the “Accumulation in control cells” value ([1]; 0.03 µM nominal, 2 min) is reported as 0.11 ± 0.01 pmol/mg protein and the “Accumulation, active transport” value ([1]; 0.03 µM nominal, 2 min) is reported as -0.05 ± 0.02 pmol/mg protein. The Fold accumulation ([1]; 0.03 µM nominal, 2 min) was 0.54, the “Accumulation in MATE2-K transporter expressing cells” value ([1]; 0.03 µM nominal, 20 min) was 0.10 ± 0.01 pmol/mg protein and the “Accumulation in control cells” value ([1]; 0.03 µM nominal, 20 min) was 0.16 ± 0.01 pmol/mg protein. The “Accumulation, active transport” value ([1]; 0.03 µM nominal, 20 min) was -0.07 ± 0.01 pmol/mg protein, the Fold accumulation ([1]; 0.03 µM nominal, 20 min) was 0.59 and the “Accumulation in MATE2-K transporter expressing cells” value ([1]; 0.30 µM nominal, 2 min) was 0.64 ± 0.14 pmol/mg protein. For the same compound, the “Accumulation in control cells” value ([1]; 0.30 µM nominal, 2 min) was 0.59 ± 0.04 pmol/mg protein, the “Accumulation, active transport” value ([1]; 0.30 µM nominal, 2 min) was 0.05 ± 0.15 pmol/mg protein and the Fold accumulation ([1]; 0.30 µM nominal, 2 min) was 1.08. For the same compound, the “Accumulation in MATE2-K transporter expressing cells” value ([1]; 0.30 µM nominal, 20 min) was 0.91 ± 0.13 pmol/mg protein, the “Accumulation in control cells” value ([1]; 0.30 µM nominal, 20 min) was 0.97 ± 0.07 pmol/mg protein and the “Accumulation, active transport” value ([1]; 0.30 µM nominal, 20 min) was -0.06 ± 0.15 pmol/mg protein. The Fold accumulation ([1]; 0.30 µM nominal, 20 min) was 0.94, the “Substrate assessment (MATE2-K)” value ([1]; 0.03, 0.30 µM, 2, 20 min) was “no in vitro substrate” and the “Max. transporter-specific fold accumulation, without inhibitor” value ([1]; 2 min, 0.3 µM) was 1.08. The “Accumulation in OAT2v1 transporter expressing cells” value [2, 3] was 0.06 ± 0.01 pmol/mg protein, the “Accumulation in control cells” value [2, 3] was 0.04 ± 0.00 pmol/mg protein and the “Accumulation, active transport” value [2, 3] was 0.01 ± 0.01 pmol/mg protein. The Fold accumulation [2, 3] was 1.24, the “Accumulation in OAT2v1 transporter expressing cells” value ([2]; 0.03 µM nominal, no inhibitor) was 0.07 ± 0.01 pmol/mg protein and the “Accumulation in control cells” value ([2]; 0.03 µM nominal, no inhibitor) was 0.04 ± 0.00 pmol/mg protein. For the same compound, the “Accumulation, active transport” value ([2]; 0.03 µM nominal, no inhibitor) was 0.03 ± 0.01 pmol/mg protein, the Fold accumulation ([2]; 0.03 µM nominal, no inhibitor) was 1.77 and the “Accumulation in OAT2v1 transporter expressing cells” value [2, 4] was 0.66 ± 0.10 pmol/mg protein. The “Accumulation in control cells” value [2, 4] was 0.43 ± 0.03 pmol/mg protein, the “Accumulation, active transport” value [2, 4] was 0.24 ± 0.10 pmol/mg protein and the Fold accumulation [2, 4] was 1.55. For the same compound, the “Accumulation in OAT2v1 transporter expressing cells” value ([2]; 0.30 µM nominal, no inhibitor) was 0.66 ± 0.04 pmol/mg protein, the “Accumulation in control cells” value ([2]; 0.30 µM nominal, no inhibitor) was 0.36 ± 0.03 pmol/mg protein and the “Accumulation, active transport” value ([2]; 0.30 µM nominal, no inhibitor) was 0.30 ± 0.05 pmol/mg protein. The Fold accumulation ([2]; 0.30 µM nominal, no inhibitor) was 1.83, the “Max. transporter-specific fold accumulation, without inhibitor” value ([2]; 0.3 µM) was 1.83 and the “Uptake via transporter (OAT2v1)” value ([2]; absence and presence of indomethacin) was “not taken up”. The “Max. transporter-specific fold accumulation, with inhibitor” value ([2]; Indomethacin, 0.3 µM) was 1.55.
